Laboratory results as given in patent US12359242B2, “Chemical platform assisted proximity capture (CAP-C)” (The University of Chicago, priority 2018, dated 2025).

Tested on: mouse embryonic stem cells (mESCs)
Test: CAP-C with G5 dendrimers on mESC samples treated with transcription elongation inhibitors
Type: cell-based
Conditions: for peaks originally called in the control sample that remained: second time point; for contacts in 10 kb resolution contact matrix: mESC; for contact probability between distance-scaled bins 2-7, loop and non-loop domains: versus G5-control
Text: The inventors then diffuse dendrimers into the cell nucleus and expose these cells to UV irradiation (FIG. 1A). The formaldehyde fixing is then reversed, and DNA-bound proteins are removed with protease to expose all DNA motifs, the dendrimer-DNA complexes are subsequently purified with ethanol precipitation. The purified dendrimer-DNA complexes are then subjected to MboI restriction digestion and end-filling with biotin-bearing DNA, followed by ligation under ultra-diluted solution, biotin capture and high-throughput sequencing (FIG. 1A). Dendrimers with a defined size were used for each CAP-C experiment.
Inhibition of transcription reduces supercoiling and leads to global loss of chromatin contacts. Chromatin topology highly associates with supercoiling, and supercoiling domains have been proposed and identified. […] Motivated by a relationship between transcription-induced supercoiling and domain organization, the inventors next examined whether transcription inhibition affects chromatin architecture. The inventors explored two different transcription elongation inhibitors, flavopiridol and α-amanitin. Reduced levels and rates of supercoiling have been observed upon transcription inhibition. Thus, the inventors performed time-series CAP-C experiments using G5 dendrimers to crosslink mESC samples treated with 2 μM flavopiridol for 1 h and 6 h, as well as samples treated with 4 μg/ml of α-amanitin for 6 h and 12 h, respectively.
The signals of these peaks were, however, weakly attenuated (FIG. 5A). Because these inhibitor-treated and G5-control samples are low-resolution contact maps, the inventors applied Aggregate Peak Analysis (APA) of the peaks called in the deep sequenced CAP-C dataset. […] The inventors plotted the mean contact maps of 103-263 loop-domains (median length: 170 Kb) shared between the control and inhibitor-treated samples by rescaling them into 10 bins (i.e. contact domains in G5-control overlapping loops that are shared between control and inhibitor-treated samples). […] The inventors also quantified these maps into a contact probability vs distance-scaled bins line-plot for all loop domains, non-loop domains and randomly permutated domains. […] Increasing contact frequencies identified at corners of inhibitor-treated loop-domains (bins 8-10) indicate the presence as well as attenuation of peaks from G5-control (FIG. 5E). This is in stark contrast to the absence of such an increase in non-loop domains and randomly permutated domain boundaries.

SMILES	APA scores versus control (6 h and 12 h treated samples)	peaks originally called in the control sample that remained (12 hr treatment)	contacts in 10 kb resolution contact matrix (4 μg/ml α-amanitin for 6 h and 12 h)	contact probability between distance-scaled bins 2-7, loop and non-loop domains	peaks originally called in the control sample that remained (6 hr treatment)	loops (APA and meta-analysis) (flavopiridol-treated samples)	contacts in 10 kb resolution contact matrix (2 μM flavopiridol for 1 h and 6 h)	contacts over 1 Mb (relative contact frequency vs distance) (transcription inhibitor-treated vs control)
CC[C@H](C)[C@@H]1NC(=O)CNC(=O)[C@@H]2Cc3c([nH]c4cc(O)ccc34)[S+]([O-])C[C@@H](NC(=O)CNC1=O)C(=O)N[C@@H](CC(N)=O)C(=O)N1C[C@H](O)C[C@H]1C(=O)N[C@@H]([C@@H](C)[C@@H](O)CO)C(=O)N2 (stereo in doubt) [α-amanitin]	greater	more than half	profound decrease in contacts	general decrease				
CN1CC[C@H](c2c(O)cc(O)c3c(=O)cc(-c4ccccc4Cl)oc23)[C@H](O)C1 [flavopiridol]				same trends	more than half	attenuated but preserved	profound decrease in contacts	slightly strong depletion
